Experimental data from patent US6887661B1, “Recombinant bHLH-PAS/JHR polypeptide and its use to screen potential insecticides” (American Cyanamid Company, priority 1997, dated 2005).

What was measured:
[1] = test system: Met mutant Drosophila flies; conditions: cited from earlier work; for resistance to topical application: Met gene mutation
[2] = test system: DNA BD of the glucocorticoid receptor fused to the AhR; conditions: CHO mammalian cells; cited from earlier work
GAL4-AhR construct = conditions: yeast cells; construct constitutively active without ligand; cited from earlier work
[3] = test system: JH cytosolic binding protein; conditions: cited from earlier work
[4] = test system: Met^3 flies transformed with genomic fragments; test: Methoprene resistance test of progeny of Met^3 transformants (rescue of Met phenotype); assay type: in vivo, Drosophila; conditions: three diagnostic amounts of methoprene
Protocol: P-element mediated germline transformation was carried out with DNA fragments isolated from phage clones derived from a wild-type genomic library. Genomic fragments were isolated following restriction enzyme digestions of phage obtained from the iso-i strain genomic library. (Tamkun et al. Proc. Natl. Acad. Sci. USA 81:5140 (1984)). Fragments were either subcloned into Bluescript (Stratagene Co., Ca.), then excised with an EcoRI-NotI double digest and subcloned into the pCaSpeR 4 transformation vector (Thummel et al. Drosophila Inform. Serv. 71:150 (1992)), or were subcloned directly into the pCaSpeR 4 vector. Purified plasmids together with pp25.1wc transformation “helper” DNA in a ratio of 2-3:1 were injected into dechorionated ywMet^3 embryos as described. (A. Spradling in Drosophila—A Practical Approach (D. B. Roberts, Ed. IRL, Oxford, 1986, page 175). Go progeny were individually crossed with y w Met^3, and transformants recognized by restoration of eye color ranging from light orange to red. For each DNA fragment, 3-5 transformants from separate Go females were recovered and their progeny tested for methoprene resistance.
Progeny of transformants were tested on three diagnostic amounts of methoprene as described in Wilson, Arch. Insect Biochem. Physiol. 32:641 (1996)). […]

Drosophila = conditions: JH analog insecticide; cited from earlier work

**Q.** For COC(=O)/C=C(\C)CC[C@@H]1O[C@@]1(C)CC[C@H]1OC1(C)C [JH bisepoxide], which “resistance to topical application” value [1] is on record?
**A.** The value was “resistance”.

**Q.** What does the source list for Clc1cc2c(cc1Cl)Oc1cc(Cl)c(Cl)cc1O2 [dioxin]?
**A.** expression of reporter gene linked to a glucocorticoid response element [2]: induced expression of a reporter gene; transactivation of LacZ reporter gene by GAL4-AhR construct (GAL4-AhR construct): enhanced transactivation

**Q.** What does the source list for COC(=O)/C=C(\C)CC/C=C(\C)CC[C@H]1OC1(C)C [JH III, [R-(E,E)]-9-(3,3-dimethyloxiranyl)-3,7-dimethyl-2,6-nonadienoic acid methyl ester]?
**A.** binding to cytosolic juvenile hormone-binding protein ([3]; Drosophila melanogaster cytosolic protein): saturable, high-affinity binding; lower binding affinity of JH cytosolic binding protein from Met flies than from Met+ flies ([3]; Met flies versus Met+ flies): 10 fold; resistance to topical application [1]: resistance

**Q.** Which “resistance to topical application” value [1] does the source give for CC(COc1ccc(Oc2ccccc2)cc1)Oc1ccccn1 (stereo not shown) [pyriproxyfen] here?
**A.** The value was “resistance”.

**Q.** With COC(C)(C)CCC[C@H](C)C/C=C/C(C)=C/C(=O)OC(C)C [methoprene, [E,E]-1-methoxy-3,7,11-trimethyl-2,4-dodecadienoic acid 1-methylethyl ester] as the molecule, how does the “resistance to both the toxic and morphogenetic effects” value ([1]; Met mutant versus wild-type flies) read?
**A.** Its value is at most 100 fold.

**Q.** What about the “resistance to both the toxic and morphogenetic effects conferred by Met^A3 and Met^K17 alleles” value ([1]; P-element alleles Met^A3 and Met^K17) of the same molecule?
**A.** The value was “conferred resistance”.

**Q.** What about the “level of methoprene resistance compared with Met^3” value ([4]; Met^3 transformants with fragments St-X and K-H) of the same molecule?
**A.** Its value is “undiminished”.

**Q.** And the “methoprene resistance after transformation” value ([4]; Met^3 transformed with the 6.234 Kb St-H fragment)?
**A.** Its value is “resistance was lost”.

**Q.** And the “toxicity to Drosophila” value (Drosophila)?
**A.** The value was “high toxicity”.

**Q.** With CCOC(=O)NCCOc1ccc(Oc2ccccc2)cc1 [fenoxycarb] as the molecule, how does the “resistance to topical application” value [1] read?
**A.** Its value is “resistance”.
